Reference: US12679878B2, “CRF2 receptor agonists and their use in therapy” (SANOFI, priority 2020, dated 2026)
Starred links: 1 amine or outer side, 2 acyl side, 3 side chain; linkers in the order of their positions; H or OH if unused. Non-standard residues stand in square brackets, D forms with d. Residues, ends and D or L forms follow the SMILES beside them. Groups on a side chain read outwards from the residue. *: point of attachment. C18 diacid = O=C(O)CCCCCCCCCCCCCCCCC(=O)*; γGlu = O=C(O)[C@H](CCC(=O)[*:2])N[*:1]; AEEA = NCCOCCOCC(=O)O; Aib = CC(C)(N)C(=O)O

Biological target: T1, human CRF2α receptor (Homo sapiens, UniProt Q13324)
T1 construct: expressed in transfected cells; host or cells: TeloHEAC
T1 sequence (Q13324 1-411): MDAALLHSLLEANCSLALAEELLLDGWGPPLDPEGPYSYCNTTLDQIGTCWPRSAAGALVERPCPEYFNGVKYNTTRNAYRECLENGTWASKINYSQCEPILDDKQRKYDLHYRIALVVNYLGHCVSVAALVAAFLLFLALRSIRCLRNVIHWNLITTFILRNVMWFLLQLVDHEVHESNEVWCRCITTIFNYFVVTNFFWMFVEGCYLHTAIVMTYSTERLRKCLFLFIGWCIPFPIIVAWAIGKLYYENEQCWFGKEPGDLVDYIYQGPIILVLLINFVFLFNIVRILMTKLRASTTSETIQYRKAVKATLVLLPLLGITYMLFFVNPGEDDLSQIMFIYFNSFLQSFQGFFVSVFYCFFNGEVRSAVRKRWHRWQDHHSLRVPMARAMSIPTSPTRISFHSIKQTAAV
Experiment: cAMP agonism at human CRF2 α receptor in TeloHEAC cells (Example 7)
Type: cell-based
Settings: cAMP HTRF, TeloHEAC cells stably expressing human CRF2 α, 0% HSA; read-out: EC50 [nM], 0% HSA
Outline: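 Thawed frozen stably transfected cells in HBSS/20 mM HEPES (0% or 0.1% HSA) plus 2 mM IBMX were exposed to compound at 2000 cells/well for 30 min at room temperature. Intracellular cAMP was read by HTRF (665/620 nm ratio) after 1 h lysis; EC50 was derived with 1000 nM urocortin 2 set as 100%.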

Structure (SMILES)	EC50 [nM]
CC[C@H](C)[C@H](N)C(=O)N[C@H](C(=O)N[C@@H](CC(C)C)C(=O)N[C@@H](CO)C(=O)N[C@@H](CC(C)C)C(=O)N[C@@H](CC(=O)O)C(=O)N[C@H](C(=O)N1CCC[C@H]1C(=O)N[C@H](C(=O)N[C@@H](CCCCN)C(=O)N[C@@H](CC(C)C)C(=O)N[C@@H](CCCCNC(=O)COCCOCCNC(=O)COCCOCCNC(=O)CC[C@H](NC(=O)CCCCCCCCCCCCCCCCC(=O)O)C(=O)O)C(=O)N[C@@H](CCC(N)=O)C(=O)N[C@H](C(=O)N[C@@H](CC(C)C)C(=O)N[C@@H](CC(C)C)C(=O)N[C@@H](CCC(=O)O)C(=O)N[C@@H](CCC(N)=O)C(=O)N[C@@H](CCC(=O)O)C(=O)N[C@@H](CCCNC(=N)N)C(=O)N[C@@H](CCC(N)=O)C(=O)N[C@@H](CCCCN)C(=O)N[C@@H](CCCCN)C(=O)N[C@@H](CCC(N)=O)C(=O)N[C@@H](CCCNC(=N)N)C(=O)N[C@@H](CCC(=O)O)C(=O)N[C@@H](CCC(N)=O)C(=O)N[C@@H](C)C(=O)N[C@@H](CCC(=O)O)C(=O)N[C@H](C(=O)N[C@@H](CC(N)=O)C(=O)NC(C)(C)C(=O)N[C@@H](CCC(N)=O)C(=O)N[C@H](C(=O)N[C@@H](CC(C)C)C(=O)N[C@@H](CCC(=O)O)C(=O)N[C@@H](CCCNC(=N)N)C(=O)N[C@H](C(N)=O)C(C)C)[C@@H](C)CC)[C@@H](C)O)[C@@H](C)CC)[C@@H](C)CC)C(C)C)C(C)C [compound 74] (H-IVLSLDVPIKLK([AEEA-AEEA-γGlu-C18 diacid])QILLEQERQKKQREQAETN[Aib]QILERV-NH2)	2.12
CC[C@H](C)[C@H](N)C(=O)N[C@H](C(=O)N[C@@H](CC(C)C)C(=O)N[C@@H](CO)C(=O)N[C@@H](CC(C)C)C(=O)N[C@@H](CC(=O)O)C(=O)N[C@H](C(=O)N1CCC[C@H]1C(=O)N[C@H](C(=O)NCC(=O)N[C@@H](CC(C)C)C(=O)N[C@@H](CCCCNC(=O)COCCOCCNC(=O)COCCOCCNC(=O)CC[C@H](NC(=O)CCCCCCCCCCCCCCCCC(=O)O)C(=O)O)C(=O)N[C@@H](CCC(N)=O)C(=O)N[C@H](C(=O)N[C@@H](CC(C)C)C(=O)N[C@@H](CC(C)C)C(=O)N[C@@H](CCC(=O)O)C(=O)N[C@@H](CCC(N)=O)C(=O)N[C@@H](CCC(=O)O)C(=O)N[C@@H](CCCNC(=N)N)C(=O)N[C@@H](CCC(N)=O)C(=O)N[C@@H](CCCCN)C(=O)N[C@@H](CCCCN)C(=O)N[C@@H](CCC(N)=O)C(=O)N[C@@H](CCCNC(=N)N)C(=O)N[C@@H](CCC(N)=O)C(=O)N[C@@H](CCC(N)=O)C(=O)N[C@@H](C)C(=O)N[C@@H](CCC(=O)O)C(=O)N[C@H](C(=O)N[C@@H](CC(N)=O)C(=O)NC(C)(C)C(=O)N[C@@H](CCC(N)=O)C(=O)N[C@H](C(=O)N[C@@H](CC(C)C)C(=O)N[C@@H](C)C(=O)N[C@@H](CCC(N)=O)C(=O)N[C@H](C(N)=O)C(C)C)[C@@H](C)CC)[C@@H](C)O)[C@@H](C)CC)[C@@H](C)CC)C(C)C)C(C)C [compound 76] (H-IVLSLDVPIGLK([AEEA-AEEA-γGlu-C18 diacid])QILLEQERQKKQRQQAETN[Aib]QILAQV-NH2)	13.4
